From US8188133B2, “Imidazole derivatives, preparation and user thereof as medicine” (Ipsen Pharma S.A.S., priority 2006, dated 2012)

| SMILES | melting point [°C] |
| --- | --- |
| Cl.NS(=O)(=O)Nc1ccc(Oc2ccc(-c3c[nH]c(COc4ccccc4)n3)cc2)cc1F | 185 to 187 |
| CCNC(=S)Nc1ccc(Oc2ccc(-c3c[nH]c(COc4ccccc4)n3)cc2)cc1F [Example 5, N-ethyl-N′-(2-fluoro-4-{4-[2-(phenoxymethyl)-1H-imidazol-4-yl]phenoxy}phenyl)thiourea] | 105 to 107 |
| NC(=S)Nc1ccc(Oc2ccc(-c3c[nH]c(COc4ccccc4)n3)cc2)cc1F [Example 6, N-(2-fluoro-4-{4-[2-(phenoxymethyl)-1H-imidazol-4-yl]phenoxy}phenyl)thiourea] | 171 to 173 |
| N#CN=C(N)Nc1ccc(Oc2ccc(-c3c[nH]c(COc4ccccc4)n3)cc2)cc1F [Example 12, N″-cyano-N-(2-fluoro-4-{4-[2-(phenoxymethyl)-1H-imidazol-4-yl]phenoxy}phenyl)guanidine] | 139 to 141 |
| NC(=N[N+](=O)[O-])Nc1ccc(Oc2ccc(-c3c[nH]c(COc4ccccc4)n3)cc2)cc1F [Example 13, N-(2-fluoro-4-{4-[2-(phenoxymethyl)-1H-imidazol-4-yl]phenoxy}phenyl)-N″-nitroguanidine] | 193 to 195 |

Further lines, results first:

| melting point [°C] | SMILES |
| --- | --- |
| 85 to 87 | CCCCNC(=O)Nc1ccc(Oc2ccc(-c3c[nH]c(COc4ccccc4)n3)cc2)cc1.O=C(O)C(F)(F)F |
| 192 to 194 | Cc1ccc(NC(=O)Nc2ccc(Oc3ccc(-c4c[nH]c(COc5ccccc5)n4)cc3)cc2)cc1 [Example 1, N-(4-methylphenyl)-N′-(4-{4-[2-(phenoxymethyl)-1H-imidazol-4-yl]phenoxy}phenyl)urea] |
| 200 to 202 | NC(=O)Nc1ccc(Oc2ccc(-c3c[nH]c(COc4ccccc4)n3)cc2)cc1 [Example 3, N-(4-{4-[2-(phenoxymethyl)-1H-imidazol-4-yl]phenoxy}phenyl)urea] |
| 178 to 180 | CCNC(=S)Nc1ccc(Oc2ccc(-c3c[nH]c(COc4ccccc4)n3)cc2)cc1 [Example 4, N-ethyl-N′-(4-{4-[2-(phenoxymethyl)-1H-imidazol-4-yl]phenoxy}phenyl)thiourea] |
| 184 to 186 | CC(C)NC(=O)Nc1ccc(Oc2ccc(-c3c[nH]c(COc4ccccc4)n3)cc2)cc1 [Example 7, N-isopropyl-N′-(4-{4-[2-(phenoxymethyl)-1H-imidazol-4-yl]phenoxy}phenyl)urea] |
| 146 to 148 | O=C(Nc1ccccc1)Nc1ccc(Oc2ccc(-c3c[nH]c(COc4ccccc4)n3)cc2)cc1 [Example 8, N-(4-{4-[2-(phenoxymethyl)-1H-imidazol-4-yl]phenoxy}phenyl)-N′-phenylurea] |
